Reference: article PMC4671066, “Characterization of the 26S proteasome network in Plasmodium falciparum” (Scientific Reports, 2015)

Tests used:
[1] = biological target: T1, P. falciparum 26S proteasome, β5 subunit (chymotrypsin-like activity) (Plasmodium falciparum, UniProt Q8IJT1); assay type: biochemical
T1 construct: gene PF3D7_1011400; with other 20S and 19S proteasome subunits
T1 sequence (Q8IJT1 61-271): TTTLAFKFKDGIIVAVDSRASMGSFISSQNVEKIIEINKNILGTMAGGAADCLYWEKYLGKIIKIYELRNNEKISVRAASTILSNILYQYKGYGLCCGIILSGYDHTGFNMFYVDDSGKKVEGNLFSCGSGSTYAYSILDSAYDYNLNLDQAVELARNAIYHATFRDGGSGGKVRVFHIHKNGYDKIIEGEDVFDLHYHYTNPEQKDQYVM
T1 sequence (A0A5K1K7U1 39-240 partner): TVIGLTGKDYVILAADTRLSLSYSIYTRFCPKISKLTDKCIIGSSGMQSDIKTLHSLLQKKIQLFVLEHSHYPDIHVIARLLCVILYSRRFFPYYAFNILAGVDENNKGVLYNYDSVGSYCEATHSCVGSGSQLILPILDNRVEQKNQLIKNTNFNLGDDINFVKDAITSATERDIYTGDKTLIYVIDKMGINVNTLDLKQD

[2] = biological target: T2, PfUSP14 (PFE1355c, ubiquitin carboxyl-terminal hydrolase, putative) (Plasmodium falciparum, UniProt Q8I3J3); assay: concentration-dependent inhibition of recombinant PfUSP14 deubiquitinase activity; assay type: biochemical
T2 construct: gene PF3D7_0527200; recombinant hexahistidyl-tagged PfUSP14
T2 sequence (Q8I3J3 1-605): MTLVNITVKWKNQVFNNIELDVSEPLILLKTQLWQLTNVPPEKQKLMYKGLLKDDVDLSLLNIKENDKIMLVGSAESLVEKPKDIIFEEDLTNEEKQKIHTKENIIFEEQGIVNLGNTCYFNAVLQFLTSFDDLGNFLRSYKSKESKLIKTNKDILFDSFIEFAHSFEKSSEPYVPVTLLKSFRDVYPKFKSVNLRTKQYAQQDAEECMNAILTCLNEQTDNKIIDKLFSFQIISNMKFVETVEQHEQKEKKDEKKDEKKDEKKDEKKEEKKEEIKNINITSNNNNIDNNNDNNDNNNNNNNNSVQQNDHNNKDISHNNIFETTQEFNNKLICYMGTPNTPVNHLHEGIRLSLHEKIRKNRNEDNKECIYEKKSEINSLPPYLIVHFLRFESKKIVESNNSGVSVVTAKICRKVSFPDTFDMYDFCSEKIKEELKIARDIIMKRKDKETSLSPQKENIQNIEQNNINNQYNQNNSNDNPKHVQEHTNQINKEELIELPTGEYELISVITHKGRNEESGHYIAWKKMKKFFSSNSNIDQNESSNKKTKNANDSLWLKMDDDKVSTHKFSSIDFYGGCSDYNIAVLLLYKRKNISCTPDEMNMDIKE

| SMILES | fluorogenic peptide (Suc-LLVY-AMC) cleavage by purified proteasome, inhibitor at [1] | IC50 [2] |
| --- | --- | --- |
| CC(=O)N[C@@H](CSC(=O)[C@]1([C@@H](O)C(C)C)NC(=O)[C@H](C)[C@@H]1O)C(=O)O [lactacystin] | the respective proteolytic activities were shown to be inhibited by the proteasome inhibitors MG132 and lactacystin |  |
| C=CC(=O)N1C/C(=C\c2ccc([N+](=O)[O-])cc2)C(=O)/C(=C/c2ccc([N+](=O)[O-])cc2)C1 [b-AP15] |  | 11.3 ± 4.7 µM |
